Tests used:
MHC-II DRB1*04:01 [1] = target: T1, MHC-II DRB1*04:01 (Homo sapiens, UniProt P01903+P01911, A100K/A169T/F76Y/I96L/K127E/L162R/M171V/N62H/P40V/Q125Y/R42H/S133A/S149N/S66Y/V115G/V209L/W38E); assay: Cell-free REVEAL class II stability assay; details: half-life of peptide-MHC-II complex (h, capped at 120) x Binding Score / 100, conformational ELISA
Procedure: (§1) We measured the half-life of each peptide-MHC-II complex using REVEAL peptide-MHC affinity assays developed by ProImmune Ltd. (Oxford, UK). On-rates of peptides were measured over a 96-hr period at 10°C. A unique positive control peptide was used for each MHC-II allele. Samples of assembling peptide-MHC complexes were taken at defined time points and snap-frozen in liquid nitrogen prior to analysis. Assembly of peptide-MHC complexes was detected using a conformational ELISA involving an anti-HLA antibody. On-rates were calculated by fitting data to a one-phase association curve: [drawing 1] To determine the off-rates of the peptides, samples of dissociating complexes were taken at defined time points and frozen in liquid nitrogen prior to analysis. Percent denaturation of peptide-MHC complexes was also detected using a conformational ELISA. Off-rates were calculated by fitting data to a one-phase dissociation curve: [drawing 2] On- and off-rate half-life values (t1/2) were calculated from the rate constant (k) using the following equation: [drawing 3] To obtain a normalized stability score, the half-life values were multiplied by the Binding Score (see above) and divided by 100.

MHC-II DRB1*11:01 [2] = target: T2, MHC-II DRB1*11:01 (Homo sapiens, UniProt P01903+P01911, A100R/A169T/A87E/I96F/K41T/L162R/M171V/P40S/Q125H/Q178H/Q39Y/Q99D/R42S/S66Y/T262R/V115G/W38E); assay: Cell-free REVEAL class II stability assay; details: half-life of peptide-MHC-II complex (h, capped at 120) x Binding Score / 100, conformational ELISA
T2 sequence (P01903 26-254 limits assumed, other chains not shown): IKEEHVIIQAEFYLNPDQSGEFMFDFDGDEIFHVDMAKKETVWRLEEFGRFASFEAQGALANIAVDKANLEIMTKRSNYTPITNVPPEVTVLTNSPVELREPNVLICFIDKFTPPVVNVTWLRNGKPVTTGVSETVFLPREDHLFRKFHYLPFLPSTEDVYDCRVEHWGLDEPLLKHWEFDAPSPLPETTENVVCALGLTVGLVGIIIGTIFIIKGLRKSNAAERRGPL
Procedure: as §1

MHC-II DRB1*03:01 [3] = target: T3, MHC-II DRB1*03:01 (Homo sapiens, UniProt P01903+P01911, A100K/A102G/A103R/A169T/F55Y/I96L/K41T/L162R/M171V/P40S/Q125H/Q178H/Q39Y/R42S/S66N/T106N/T262R/W38E/Y61H); assay: Cell-free REVEAL class II stability assay; details: half-life of peptide-MHC-II complex (h, capped at 120) x Binding Score / 100, conformational ELISA
T3 sequence (P01903 26-254 limits assumed, other chains not shown): as above
Procedure: as §1

MHC-II DRB1*15:03 [4] = target: T4, MHC-II DRB1*15:03 (Homo sapiens, UniProt P01903+P01911, Y59H); assay: Cell-free REVEAL class II stability assay; details: half-life of peptide-MHC-II complex (h, capped at 120) x Binding Score / 100, conformational ELISA
T4 construct: purchased ProImmune
T4 sequence (P01903 26-254, other chains not shown): as the sequence (P01903 26-254 limits assumed, other chains not shown) above
Procedure: as §1

MHC-II DRB1*15:01 [5] = target: T5, MHC-II DRB1*15:01 (Homo sapiens, UniProt P01903+P01911); assay: Cell-free REVEAL class II stability assay; details: half-life of peptide-MHC-II complex (h, capped at 120) x Binding Score / 100, conformational ELISA
T5 construct: purchased ProImmune
Procedure: as §1

MHC-II DRB1*07:01 [6] = target: T6, MHC-II DRB1*07:01 (Homo sapiens, UniProt P01903+P01911, A100R/A102G/A103Q/D57E/D86V/E43K/F76Y/K127E/L162R/M171V/P40G/Q125H/Q99D/R33Q/R42Y/R54Q/S133A/S66F/T210M/V115G/Y107V/Y59L/Y89S); assay: Cell-free REVEAL class II stability assay; details: half-life of peptide-MHC-II complex (h, capped at 120) x Binding Score / 100, conformational ELISA
Procedure: as §1

MHC-II DRB1*04:01 [7] = target: T1, MHC-II DRB1*04:01; assay: Cell-free REVEAL class II binding assay; details: signal of test peptide as percentage of allele-specific positive control peptide, fluorescence, conformation-specific monoclonal antibody
Text: (§2) We used a proprietary high throughput, REVEAL binding assay (ProImmune, www.proimmune.com) to estimate the binding of individual test peptides to the following MHC-II variants: DRB1*03:01, DRB1*04:01, DRB1*07:01, DRB1*11:01, DRB1*15:01 and DRB1*15:03 [28]. Detection of a peptide binding to each MHC-II protein is based on the presence or absence of the native conformation of the MHC-peptide complex. The peptide-MHC-II complex is detected by an increase in a fluorescence signal due to the binding of a specific monoclonal antibody. Each test-peptide is given a score relative to a positive control peptide, which is a known T-cell epitope for that MHC-II molecule. The score is reported quantitatively as a percentage of the signal generated by the test peptide compared with the positive control peptide. Assay performance is evaluated by including in each set of measurements an intermediate control peptide which is known to bind the MHC-II molecule but with a lower affinity than the positive control peptide. Note that the positive control peptide used to determine the binding score is different from the positive control peptides depicted in the figures, which are known T-cell epitopes identified in the FVIII molecule.

MHC-II DRB1*11:01 [8] = target: T2, MHC-II DRB1*11:01; assay: Cell-free REVEAL class II binding assay; details: signal of test peptide as percentage of allele-specific positive control peptide, fluorescence, conformation-specific monoclonal antibody
Text: as §2

MHC-II DRB1*03:01 [9] = target: T3, MHC-II DRB1*03:01; assay: Cell-free REVEAL class II binding assay; details: signal of test peptide as percentage of allele-specific positive control peptide, fluorescence, conformation-specific monoclonal antibody
Text: as §2

MHC-II DRB1*15:03 [10] = target: T4, MHC-II DRB1*15:03; assay: Cell-free REVEAL class II binding assay; details: signal of test peptide as percentage of allele-specific positive control peptide, fluorescence, conformation-specific monoclonal antibody
Text: as §2

MHC-II DRB1*15:01 [11] = target: T5, MHC-II DRB1*15:01; assay: Cell-free REVEAL class II binding assay; details: signal of test peptide as percentage of allele-specific positive control peptide, fluorescence, conformation-specific monoclonal antibody
Text: as §2

MHC-II DRB1*07:01 [12] = target: T6, MHC-II DRB1*07:01; assay: Cell-free REVEAL class II binding assay; details: signal of test peptide as percentage of allele-specific positive control peptide, fluorescence, conformation-specific monoclonal antibody
Text: as §2

Sequence | Stability Index (MHC-II DRB1*04:01 [1]) | Stability Index (MHC-II DRB1*11:01 [2]) | Stability Index (MHC-II DRB1*03:01 [3]) | Stability Index (MHC-II DRB1*15:03 [4]) | Stability Index (MHC-II DRB1*15:01 [5]) | Stability Index (MHC-II DRB1*07:01 [6]) | Binding Score (MHC-II DRB1*04:01 [7]) | Binding Score (MHC-II DRB1*11:01 [8]) | Binding Score (MHC-II DRB1*03:01 [9]) | Binding Score (MHC-II DRB1*15:03 [10]) | Binding Score (MHC-II DRB1*15:01 [11]) | Binding Score (MHC-II DRB1*07:01 [12])
QKFSSLYISQFIIMY [synthetic wild type FVIII 15 mer peptide] | 0.2 | 0.0 | 0.1 | 0.0 | 27.5 | 0.0 | 1.9% | 0.4% | 0.5% | 0.0% | 22.9% | 0.0%
YIRLHPTHYSIRSTL [synthetic wild type FVIII 15 mer peptide] | 61.0 | 30.2 | 2.4 | 281.7 | 1434.9 | 20.6 | 59.3% | 174.3% | 7.9% | 234.7% | 1195.7% | 17.2%
GITDVRPLYSRRLPK [synthetic wild type FVIII 15 mer peptide, region of ns-SNP R484H] | 0.1 | 0.6 | 3.7 | 3.1 | 34.9 | 0.6 | 0.8% | 13.2% | 10.8% | 2.6% | 29.1% | 2.0%
IARYIRLHPTHYSIR [synthetic wild type FVIII 15 mer peptide] | 38.8 | 36.2 | 0.0 | 124.6 | 4055.5 | 0.0 | 61.3% | 150.5% | 1.0% | 103.9% | 3379.6% | 0.0%
RQNVEGSYDGAYAPV [synthetic wild type FVIII 15 mer peptide, region of ns-SNP D1241E] | 0.0 | 0.0 | 0.0 | 0.0 | 0.0 | 0.0 | 0.0% | 0.1% | 0.0% | 0.0% | 0.0% | 0.0%
PPLLTRYLRIHPQSW [synthetic wild type FVIII 15 mer peptide] | 0.9 | 5.9 | 0.0 | 26.0 | 483.9 | 8.4 | 9.6% | 42.2% | 0.0% | 21.7% | 403.3% | 7.0%
PQVNNPKEWLQVDFQ [synthetic wild type FVIII 15 mer peptide] | 0.0 | 0.0 | 0.0 | 0.0 | 0.2 | 0.0 | 0.0% | 0.1% | 0.0% | 0.0% | 0.1% | 0.0%
GPTKSDPRCLTRYYS [synthetic wild type FVIII 15 mer peptide] | 0.1 | 0.0 | 1.6 | 0.0 | 7.2 | 0.0 | 0.5% | 1.2% | 4.8% | 3.8% | 63.6% | 0.0%
QKTMKVTGVTTQGVK [synthetic wild type FVIII 15 mer peptide, region of ns-SNP M2238V] | 0.5 | 0.0 | 0.0 | 0.0 | 0.5 | 0.0 | 6.6% | 0.1% | 0.0% | 0.0% | 0.8% | 0.0%
SRPYNIYPHGITDVR [synthetic wild type FVIII 15 mer peptide, region of ns-SNP R484H] | 0.0 | 0.4 | 0.0 | 0.1 | 0.1 | 0.0 | 0.2% | 12.0% | 0.1% | 0.2% | 0.1% | 0.0%
LSTRQNVEGSYDGAY [synthetic wild type FVIII 15 mer peptide, region of ns-SNP D1241E] | 3.2 | 0.0 | 0.0 | 0.0 | 0.0 | 0.0 | 15.2% | 0.2% | 0.0% | 0.0% | 0.0% | 0.0%
RSNAWRPQVNNPKEW [synthetic wild type FVIII 15 mer peptide] | 12.4 | 0.0 | 0.0 | 0.0 | 0.5 | 0.0 | 18.2% | 0.1% | 0.0% | 0.0% | 0.4% | 0.0%
